According to article PMC7044277 (Nature Communications, 2020):
“And” between values parts separate entries of the source, which are not always exact repeats. Identical values can stand only once.

Columns and labels:
Assay type in all cases: cell-based
320 non-olfactory GPCRs [1] = molecular target: T1, 320 non-olfactory GPCRs (Homo sapiens, UniProt P32249)
T1 construct: expressed in transfected cells; host or cells: HTLA cells

320 non-olfactory GPCRs [2] = molecular target: T2, 320 non-olfactory GPCRs (Homo sapiens, UniProt P51677)
T2 construct: expressed in transfected cells; host or cells: HTLA cells
T2 sequence (P51677 whole entry): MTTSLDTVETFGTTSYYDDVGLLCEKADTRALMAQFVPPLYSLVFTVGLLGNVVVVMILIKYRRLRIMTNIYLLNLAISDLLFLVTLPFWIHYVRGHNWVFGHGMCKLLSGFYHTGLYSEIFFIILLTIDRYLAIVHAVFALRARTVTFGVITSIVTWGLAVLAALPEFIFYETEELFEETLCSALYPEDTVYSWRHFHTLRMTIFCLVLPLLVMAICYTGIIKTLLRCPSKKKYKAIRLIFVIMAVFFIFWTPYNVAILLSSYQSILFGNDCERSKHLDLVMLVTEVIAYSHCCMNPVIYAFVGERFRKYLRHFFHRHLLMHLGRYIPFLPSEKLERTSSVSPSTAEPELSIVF

320 non-olfactory GPCRs [3] = molecular target: T3, 320 non-olfactory GPCRs (Homo sapiens, UniProt Q15077); conditions: receptor P2RY6; replicate values, Fig_4g
T3 construct: expressed in transfected cells; host or cells: HTLA cells
T3 sequence (Q15077 whole entry): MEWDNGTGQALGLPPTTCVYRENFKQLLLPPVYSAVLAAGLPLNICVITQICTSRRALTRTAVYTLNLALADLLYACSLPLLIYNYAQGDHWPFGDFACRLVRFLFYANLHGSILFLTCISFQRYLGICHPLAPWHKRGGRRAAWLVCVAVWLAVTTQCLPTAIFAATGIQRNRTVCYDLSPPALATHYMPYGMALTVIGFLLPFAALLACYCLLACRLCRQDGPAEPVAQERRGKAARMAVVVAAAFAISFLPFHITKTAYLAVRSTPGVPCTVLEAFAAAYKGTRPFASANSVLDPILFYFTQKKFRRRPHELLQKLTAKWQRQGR

320 non-olfactory GPCRs [4] = molecular target: 320 non-olfactory GPCRs (Homo sapiens, UniProt P11229)
320 non-olfactory GPCRs (Homo sapiens, UniProt P11229), sequence (P11229 whole entry): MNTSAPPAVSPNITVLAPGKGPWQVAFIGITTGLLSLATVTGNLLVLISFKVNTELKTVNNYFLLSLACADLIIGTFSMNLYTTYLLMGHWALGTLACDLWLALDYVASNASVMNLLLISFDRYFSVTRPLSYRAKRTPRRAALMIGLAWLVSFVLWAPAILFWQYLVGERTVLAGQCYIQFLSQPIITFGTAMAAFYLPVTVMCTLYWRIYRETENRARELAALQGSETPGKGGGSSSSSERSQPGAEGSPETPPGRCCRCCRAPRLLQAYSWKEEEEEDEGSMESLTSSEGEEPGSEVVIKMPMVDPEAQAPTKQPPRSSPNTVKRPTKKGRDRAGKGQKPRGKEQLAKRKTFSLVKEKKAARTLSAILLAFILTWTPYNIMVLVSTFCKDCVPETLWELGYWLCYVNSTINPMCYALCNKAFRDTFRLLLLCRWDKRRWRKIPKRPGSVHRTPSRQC
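For Fold of Basal in this document: compound tested at 1 µM final concentration.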
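For GPCRome agonism screen response in this document: fold over basal response of each receptor without drug.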

T1 sequence (P32249 whole entry): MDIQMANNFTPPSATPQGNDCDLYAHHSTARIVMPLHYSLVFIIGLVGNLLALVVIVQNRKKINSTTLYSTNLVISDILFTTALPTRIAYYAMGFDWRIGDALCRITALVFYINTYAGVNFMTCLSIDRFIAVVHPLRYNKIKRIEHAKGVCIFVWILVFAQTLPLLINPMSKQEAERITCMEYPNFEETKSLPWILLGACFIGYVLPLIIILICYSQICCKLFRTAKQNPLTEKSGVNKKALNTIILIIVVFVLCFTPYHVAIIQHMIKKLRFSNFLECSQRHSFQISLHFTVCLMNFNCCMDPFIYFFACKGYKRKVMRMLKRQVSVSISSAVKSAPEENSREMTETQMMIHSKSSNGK

`CCOc1cccc2cc(C(C)NCC3(O)CCCCC3)oc12` (stereo not shown) [O4LE6] was tested. Which “Fold of Basal” value (320 non-olfactory GPCRs [1]) did it give?
The value was 2.191 and 1.736 and 1.097 and 1.536.

What about the “Fold of Basal” value (320 non-olfactory GPCRs [2]) of the same compound?
Its value is 1.539 and 1.182 and 0.9454 and 0.9656.

What about the “GPCRome agonism screen response” value (320 non-olfactory GPCRs [3]) of the same compound?
Its value is 0.88 and 0.9723 and 0.9546 and 1.27.

What about the “Fold of Basal” value (320 non-olfactory GPCRs [4]) of the same compound?
Its value is 0.6962 and 0.7878 and 0.5081 and 0.6515.
